Consider ten molecules from ChEMBL document CHEMBL2046282, “Structure-based optimization of aminopyridines as PKCθ inhibitors” (Bioorg Med Chem Lett, 2012).

In series [1] the target is T1, Protein kinase C theta type (Homo sapiens, UniProt Q04759). In words: Inhibition of PKCtheta.
Series [2] addresses Protein kinase C alpha type (Homo sapiens, UniProt P17252). In words: Inhibition of PKCalpha.
Series [3] has as its target Serine/threonine-protein kinase PLK1 (Homo sapiens, UniProt P53350). In words: Inhibition of Plk.
In series [4] the target is Tyrosine-protein kinase Lck (Homo sapiens, UniProt P06239). As to the kind of experiment: Inhibition of LCK.
A short description of series [5]: Volume of distribution at steady state in mouse at 3 mg/kg, iv and 10 mg/kg, po. It is filed as ADME, organism-based. As to conditions: in vivo, read-out: Vdss.
Series [6] can be described thus: Oral bioavailability in mouse at 10 mg/kg. The class given is ADME, organism-based. The conditions noted are these: in vivo.
Series [7] can be described thus: Half life in mouse at 3 mg/kg, iv and 10 mg/kg, po. It is filed as ADME, organism-based. As to conditions: in vivo.
Series [8] has as its target Receptor-type tyrosine-protein kinase FLT3 (Homo sapiens, UniProt P36888). In words: Inhibition of Flt3.
In series [9] the target is Tyrosine-protein kinase JAK2 (Homo sapiens, UniProt O60674). As to the kind of experiment: Inhibition of JAK2.
Series [10] addresses Tyrosine-protein kinase Fyn (Homo sapiens, UniProt P06241). In words: Inhibition of FYN.
Series [11] concerns the target Mitogen-activated protein kinase 10 (Homo sapiens, UniProt P53779). In words: Inhibition of JNK3.
Series [12] concerns the target Protein kinase C delta type (Homo sapiens, UniProt Q05655). As to the kind of experiment: Inhibition of PKCdelta.
The target in series [13] is Protein kinase C epsilon type (Homo sapiens, UniProt Q02156). As to the kind of experiment: Inhibition of PKCepsilon.
Series [14] deals with Phosphatidylinositol 4,5-bisphosphate 3-kinase catalytic subunit alpha isoform (Homo sapiens, UniProt P42336). In words: Inhibition of PI3Kalpha.
Series [15] deals with Rho-associated protein kinase 1 (Homo sapiens, UniProt Q13464). In words: Inhibition of ROCK1.
In series [16] the target is Tyrosine-protein kinase Lyn (Homo sapiens, UniProt P07948). In words: Inhibition of LYN.
Series [17] is described as follows: Mean residence time in mouse at 3 mg/kg, iv and 10 mg/kg, po. It is filed as ADME, organism-based. As to conditions: in vivo.
Series [18] has as its target Tyrosine-protein kinase ITK/TSK (Homo sapiens, UniProt Q08881). In words: Inhibition of ITK.
Series [19] deals with RAF proto-oncogene serine/threonine-protein kinase (Homo sapiens, UniProt P04049). As to the kind of experiment: Inhibition of c-Raf.
Series [20] can be described thus: Clearance in mouse at 3 mg/kg, iv and 10 mg/kg, po. It is filed as ADME, organism-based. As to conditions: in vivo.
For a further series, the system named is Plasma. In words: fCmax in Staphlyococcal enterotoxin B challenged Balb/c mouse plasma at 100 mg/kg, po after 2 hrs. It is filed as ADME, organism-based. On the set-up: dose 100 mg/kg, route oral. As to conditions: in vivo.
Series [21] concerns the target Tyrosine-protein kinase ZAP-70 (Homo sapiens, UniProt P43403). In words: Inhibition of ZAP70.
The target in series [22] is Protein kinase C beta type (Homo sapiens, UniProt P05771). In words: Inhibition of PKCbeta.
Series [23] concerns the target T1, Protein kinase C theta type. As to the kind of experiment: Inhibition of PKCtheta-mediated IL-2 production by cell based assay.
Series [24] concerns the target Mitogen-activated protein kinase 3 (Homo sapiens, UniProt P27361). In words: Inhibition of ERK1.
Series [25] addresses Cyclin-dependent kinase 2 (Homo sapiens, UniProt P24941). In words: Inhibition of CDK2.
The target in series [26] is Vascular endothelial growth factor receptor 2 (Homo sapiens, UniProt P35968). As to the kind of experiment: Inhibition of KDR.
The target of series [27] is Phosphatidylinositol 4,5-bisphosphate 3-kinase catalytic subunit gamma isoform (Homo sapiens, UniProt P48736). As to the kind of experiment: Inhibition of PI3Kgamma.
A short description of series [28]: Apparent volume of distribution in mouse at 3 mg/kg, iv and 10 mg/kg, po. The class given is ADME, organism-based. As to conditions: in vivo, read-out: Vz.
Series [29] can be described thus: Selectivity ratio of Ki for GSK3beta to Ki for PKCtheta.
A short description of series [30]: Selectivity ratio of Ki for PKA to Ki for PKCtheta.
Series [31] is described as follows: Selectivity ratio of Ki for Src to Ki for PKCtheta.
Series [32] is described as follows: Permeability from basolateral to apical side of human Caco2 cells. It is filed as ADME, cell-based. The conditions noted are these: Caco-2, read-out: permeability. (In general: Passage across Caco-2 layers is used to estimate intestinal permeability.)
Series [33] can be described thus: Permeability from apical to basolateral side of human Caco2 cells. It is filed as ADME, cell-based. The conditions noted are these: Caco-2, read-out: permeability.

Protein kinase C delta type, sequence (Q05655 whole entry): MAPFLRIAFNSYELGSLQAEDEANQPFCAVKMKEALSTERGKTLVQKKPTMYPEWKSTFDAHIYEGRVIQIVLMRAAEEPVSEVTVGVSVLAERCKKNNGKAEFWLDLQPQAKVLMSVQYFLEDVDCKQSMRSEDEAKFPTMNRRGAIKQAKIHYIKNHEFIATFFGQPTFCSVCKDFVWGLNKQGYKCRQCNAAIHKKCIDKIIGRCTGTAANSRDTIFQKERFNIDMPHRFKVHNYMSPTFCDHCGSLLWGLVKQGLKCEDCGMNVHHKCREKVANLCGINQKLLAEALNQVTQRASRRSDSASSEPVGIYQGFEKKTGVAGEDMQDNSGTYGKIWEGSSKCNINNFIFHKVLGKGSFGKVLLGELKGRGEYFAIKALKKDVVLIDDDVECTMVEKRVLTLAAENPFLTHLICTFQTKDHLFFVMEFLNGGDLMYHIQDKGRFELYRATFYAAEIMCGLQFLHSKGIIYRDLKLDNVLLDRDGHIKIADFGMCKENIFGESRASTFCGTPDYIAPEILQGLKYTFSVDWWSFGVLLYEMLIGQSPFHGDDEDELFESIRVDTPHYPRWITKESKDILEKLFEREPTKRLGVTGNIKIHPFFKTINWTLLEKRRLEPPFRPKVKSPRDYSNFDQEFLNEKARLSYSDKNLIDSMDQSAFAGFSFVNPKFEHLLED
T1 sequence (Q04759 whole entry): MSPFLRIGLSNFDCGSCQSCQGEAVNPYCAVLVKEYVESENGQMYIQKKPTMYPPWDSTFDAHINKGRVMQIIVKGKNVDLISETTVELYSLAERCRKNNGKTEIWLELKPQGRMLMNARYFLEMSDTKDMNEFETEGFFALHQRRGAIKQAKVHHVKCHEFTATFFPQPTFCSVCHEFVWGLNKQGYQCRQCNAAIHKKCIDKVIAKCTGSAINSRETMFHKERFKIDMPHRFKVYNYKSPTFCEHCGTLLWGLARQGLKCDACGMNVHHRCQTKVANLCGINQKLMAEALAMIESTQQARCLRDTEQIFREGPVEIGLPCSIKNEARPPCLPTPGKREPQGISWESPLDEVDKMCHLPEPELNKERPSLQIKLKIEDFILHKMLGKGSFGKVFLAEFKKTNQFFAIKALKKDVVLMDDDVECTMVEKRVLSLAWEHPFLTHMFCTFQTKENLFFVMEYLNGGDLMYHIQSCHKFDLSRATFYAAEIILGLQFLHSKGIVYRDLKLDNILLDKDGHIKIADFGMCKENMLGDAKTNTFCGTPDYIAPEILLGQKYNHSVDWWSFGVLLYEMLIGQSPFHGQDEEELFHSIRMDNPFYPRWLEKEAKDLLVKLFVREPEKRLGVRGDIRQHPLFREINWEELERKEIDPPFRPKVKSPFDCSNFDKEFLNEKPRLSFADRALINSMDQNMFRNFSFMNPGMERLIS
Phosphatidylinositol 4,5-bisphosphate 3-kinase catalytic subunit alpha isoform, sequence (P42336 whole entry, canonical isoform): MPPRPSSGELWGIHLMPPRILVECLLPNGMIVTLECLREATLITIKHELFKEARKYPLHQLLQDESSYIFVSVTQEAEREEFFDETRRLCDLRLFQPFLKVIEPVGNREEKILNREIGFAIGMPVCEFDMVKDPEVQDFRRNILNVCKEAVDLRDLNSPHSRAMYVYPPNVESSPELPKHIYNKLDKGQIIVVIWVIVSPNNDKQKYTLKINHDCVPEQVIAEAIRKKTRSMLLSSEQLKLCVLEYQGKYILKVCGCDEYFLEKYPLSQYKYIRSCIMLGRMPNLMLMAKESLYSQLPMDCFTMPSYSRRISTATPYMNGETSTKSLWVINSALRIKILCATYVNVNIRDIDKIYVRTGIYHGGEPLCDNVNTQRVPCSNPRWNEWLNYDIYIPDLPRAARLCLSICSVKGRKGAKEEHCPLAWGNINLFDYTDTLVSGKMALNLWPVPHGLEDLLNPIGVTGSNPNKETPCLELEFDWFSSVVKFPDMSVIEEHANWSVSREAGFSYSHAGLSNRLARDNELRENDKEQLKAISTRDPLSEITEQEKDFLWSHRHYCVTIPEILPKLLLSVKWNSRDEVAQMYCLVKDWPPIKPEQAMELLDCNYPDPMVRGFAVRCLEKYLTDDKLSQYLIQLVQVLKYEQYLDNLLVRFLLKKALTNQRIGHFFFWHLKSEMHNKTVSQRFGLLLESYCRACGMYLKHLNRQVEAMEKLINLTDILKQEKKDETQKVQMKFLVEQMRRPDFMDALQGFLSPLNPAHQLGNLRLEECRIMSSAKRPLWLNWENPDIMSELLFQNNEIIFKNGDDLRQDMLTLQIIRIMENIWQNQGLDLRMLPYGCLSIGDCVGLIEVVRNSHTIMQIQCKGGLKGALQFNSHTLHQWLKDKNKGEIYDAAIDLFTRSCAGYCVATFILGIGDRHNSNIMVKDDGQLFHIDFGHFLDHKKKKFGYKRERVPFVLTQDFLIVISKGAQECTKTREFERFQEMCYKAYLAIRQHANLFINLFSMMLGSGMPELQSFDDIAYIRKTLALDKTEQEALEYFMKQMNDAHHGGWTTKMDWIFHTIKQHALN
Mitogen-activated protein kinase 10, sequence (P53779 whole entry): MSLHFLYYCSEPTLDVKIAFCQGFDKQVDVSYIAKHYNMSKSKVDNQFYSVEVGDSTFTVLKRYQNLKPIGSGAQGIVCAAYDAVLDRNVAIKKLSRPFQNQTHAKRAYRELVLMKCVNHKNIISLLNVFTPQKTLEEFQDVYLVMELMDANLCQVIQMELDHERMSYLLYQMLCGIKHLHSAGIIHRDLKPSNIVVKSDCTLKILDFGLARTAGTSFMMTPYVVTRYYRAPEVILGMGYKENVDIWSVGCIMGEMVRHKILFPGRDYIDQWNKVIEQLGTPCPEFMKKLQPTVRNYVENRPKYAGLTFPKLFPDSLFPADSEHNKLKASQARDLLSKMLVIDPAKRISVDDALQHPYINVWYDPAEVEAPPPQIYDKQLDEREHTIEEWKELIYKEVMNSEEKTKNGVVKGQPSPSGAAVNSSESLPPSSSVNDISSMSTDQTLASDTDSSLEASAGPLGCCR
Tyrosine-protein kinase Lck, sequence (P06239 whole entry): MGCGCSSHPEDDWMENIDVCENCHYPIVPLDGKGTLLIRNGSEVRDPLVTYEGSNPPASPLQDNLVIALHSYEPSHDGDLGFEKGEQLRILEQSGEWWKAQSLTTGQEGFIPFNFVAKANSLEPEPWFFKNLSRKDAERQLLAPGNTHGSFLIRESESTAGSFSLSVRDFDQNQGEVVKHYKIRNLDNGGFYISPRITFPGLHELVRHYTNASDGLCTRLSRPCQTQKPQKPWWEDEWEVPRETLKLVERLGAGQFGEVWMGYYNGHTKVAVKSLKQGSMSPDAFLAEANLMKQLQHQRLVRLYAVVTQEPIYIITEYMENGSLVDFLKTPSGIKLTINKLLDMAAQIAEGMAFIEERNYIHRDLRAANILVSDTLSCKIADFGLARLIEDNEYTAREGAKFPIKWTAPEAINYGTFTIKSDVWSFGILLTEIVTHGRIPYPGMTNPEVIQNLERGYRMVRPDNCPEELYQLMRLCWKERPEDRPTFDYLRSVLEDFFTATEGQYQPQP
Mitogen-activated protein kinase 3, sequence (P27361 whole entry): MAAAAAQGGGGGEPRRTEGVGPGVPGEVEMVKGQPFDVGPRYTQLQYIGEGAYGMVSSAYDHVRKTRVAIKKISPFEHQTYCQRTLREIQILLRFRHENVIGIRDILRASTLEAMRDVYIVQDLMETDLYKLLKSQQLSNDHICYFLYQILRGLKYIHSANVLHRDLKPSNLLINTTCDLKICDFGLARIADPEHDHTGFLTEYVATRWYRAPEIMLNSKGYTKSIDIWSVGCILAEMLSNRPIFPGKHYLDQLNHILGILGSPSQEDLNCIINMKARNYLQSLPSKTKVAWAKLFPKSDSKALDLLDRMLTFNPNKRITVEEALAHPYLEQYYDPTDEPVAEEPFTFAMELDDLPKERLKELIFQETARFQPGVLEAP
Tyrosine-protein kinase Lyn, sequence (P07948 whole entry): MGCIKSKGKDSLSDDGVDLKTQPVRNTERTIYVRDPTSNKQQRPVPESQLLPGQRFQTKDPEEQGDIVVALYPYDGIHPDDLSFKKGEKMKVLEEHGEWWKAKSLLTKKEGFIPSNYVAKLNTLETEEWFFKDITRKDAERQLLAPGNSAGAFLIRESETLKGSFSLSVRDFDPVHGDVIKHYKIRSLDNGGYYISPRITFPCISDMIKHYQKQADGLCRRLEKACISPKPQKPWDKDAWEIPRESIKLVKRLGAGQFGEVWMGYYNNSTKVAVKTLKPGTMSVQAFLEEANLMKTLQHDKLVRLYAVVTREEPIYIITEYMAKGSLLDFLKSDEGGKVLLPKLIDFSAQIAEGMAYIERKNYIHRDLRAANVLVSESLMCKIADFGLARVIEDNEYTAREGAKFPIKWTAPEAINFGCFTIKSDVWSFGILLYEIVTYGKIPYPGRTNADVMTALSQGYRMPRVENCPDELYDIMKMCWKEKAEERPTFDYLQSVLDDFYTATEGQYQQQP

Usually Ki stands for the equilibrium dissociation constant of an inhibitor or competing ligand from its target. Molecule `Nc1ncccc1C(=O)c1cccc(N2CCC(N)C2)n1` (configuration not stated) registered a Ki in [1] of 1520 nM.

For `Cc1cc(C(=O)c2cccnc2N)nc(N2CCN[C@@H](CC(C)C)C2)c1`, the Ki in series [2] turned out to be 459 nM.

One may read the IC50 as the point on the concentration scale where inhibition reaches its midpoint. Read a high IC50 as lower potency. One may read the bioavailability as the share of a dose that reaches the circulation, judged against a reference dose that is usually intravenous. Read a low bioavailability as poor availability. Broadly, the half-life is the time needed for the level to fall by half in the phase considered. Read a high half-life as slow decline. The term MRT denotes a mean duration of stay, worked out from the concentration-time curve. For the molecule `CC(C)C[C@H]1CN(c2ccc(C(F)(F)F)c(C(=O)c3cccnc3N)n2)CCN1`, the Ki was > 4000 nM in series [3]; 76 nM in [2]; 580 nM in series [8]; > 4000 nM in series [9]; > 4000 nM in [11]; 37 nM in [12]. Further, the Ki in series [13] is 17 nM; in [1] it was 3 nM; in [14], > 4000 nM; in series [15], > 4000 nM; in series [22], 260 nM; in [25], > 4000 nM. Further, the Ki in series [26] and in [27] was > 4000 nM in each case. Further, the IC50 in series [4], in series [10], in series [16], in series [18], in series [19] and in series [21] was > 2000 nM throughout. In addition, the IC50 was 52 nM in [23] and > 2000 nM in series [24]. Besides, the figures for the Vd in series [5] and in [28] were 15.8 L/kg and 19.7 L/kg, respectively. The same molecule had a bioavailability in series [6] of 45%. For the same molecule, the half-life in series [7] was 1.3 h. The molecule further showed an MRT in series [17] of 1.4 h. The same molecule came in with a clearance in series [20] of 203 mL/min/kg. The molecule further gave a fCmax in the series on Plasma of 150 nM.

`CC(C)C[C@H]1CN(c2ccc(OC(F)F)c(C(=O)c3cccnc3N)n2)CCN1`: the Ki was 459 nM in [2], 87 nM in [12] and 7 nM in series [1]. Also, the Ratio Ki in [29] is > 570; in series [30], 84; in series [31] it was > 570. The molecule further yielded an IC50 in series [23] of 229 nM.

With `CC(C)C[C@H]1CN(c2ccc(C3CC3)c(C(=O)c3cccnc3N)n2)CCN1`, in series [2], the affinity, expressed as Ki, was 2650 nM.

As to `CC(C)C[C@H]1CN(c2cccc(C(=O)c3cccnc3N)n2)CCN1`, the Ki was found to be 54 nM in series [2], 20 nM in series [12] and 3 nM in [1]. In addition, the Ratio Ki in [29] is 143; in [30], 60; in [31], > 1400. In addition, it took 165 nM to reach half-maximal inhibition in series [23] (IC50).

Regarding `CC(C)C[C@H]1CN(c2ccc(Cc3ccccc3)c(C(=O)c3cccnc3N)n2)CCN1`, in [2], the Ki is > 1250 nM.

In the case of `Nc1ncccc1C(=O)c1cccc(N2CCCNCC2)n1`, in [32], the Papp B→A is 11 ×10⁻⁶ cm/s. Further, in series [33], the Papp A→B worked out at 9 ×10⁻⁶ cm/s.

For `CC(C)C[C@H]1CN(c2ccc(Cl)c(C(=O)c3cccnc3N)n2)CCN1`, the Ki turned out to be 49 nM in series [2], 22 nM in series [12] and 2 nM in series [1]. In addition, the Ratio Ki is 255 in series [29], 38 in [30] and > 4000 in series [31]. In series [23], this molecule came in with an IC50 of 58 nM.

In series [2], `CCCc1ccc(N2CCN[C@@H](CC(C)C)C2)nc1C(=O)c1cccnc1N` had a Ki of 1230 nM.
